Measured values published in PMC8953427, “Enantioselectivity of Pentedrone and Methylone on Metabolic Profiling in 2D and 3D Human Hepatocyte-like Cells” (Pharmaceuticals, 2022).

Tests used:
2D-HLCs = assay: Metabolite formation in 2D-HLCs by GC-MS; assay type: in vitro ADME, human; details: 1 mM, 6 h
Description: (§1) Regarding the study of methylone and pentedrone metabolite biosynthesis, in 2D-HLCs and 3D-HLCs, at the D17 of the HLCs differentiation, the cells were seeded in 6-well plates in 1 mL of culture medium at a density of 2.0 × 10^5 cells/well and 5.0 × 10^5 cells/well in 2D and 3D cultures, respectively. At D34, 2D-HLCs and 3D-HLCs were exposed to 1 mM of each enantiomer diluted in IMDM. Upon 6 h of incubation, the IMDM was removed and the pellets were quenched with 2 mL of ice-cold acetonitrile and scraped. The quenched solutions were centrifuged for 10 min at 4 °C. After the addition of methcathinone (internal standard) 100 µg/mL, the supernatants were derivatized with TFAA and analyzed by GC–MS [2, 41].
(§2) To study pentedrone and methylone metabolic profiles, we set up a methodology for the identification of pentedrone and methylone phase I metabolites based on a GC–MS methodology developed by Araujo et al. and Uralets et al. with some adaptations. Briefly, samples from the metabolic assays (200 μL) were evaporated to dryness under nitrogen flow. Then, 50 µL of ethyl acetate and 50 µL of TFAA (derivatizing agent) were added to the dried residue. Incubation was performed at 65 °C for 15 min. After cooling to room temperature, the extract was dried under nitrogen flow. The residue obtained was dissolved in 100 μL of ethyl acetate, and 2 μL was injected into the GC–MS apparatus.
(§3) GC–MS analysis was performed with a 436-GC model (Bruker Daltonics, Billerica, MA, USA) coupled to an EVOQ triple quadrupole mass spectrometer (Bruker Daltonics) and a Bruker MS workstation software version 8.2. The chromatographic separation was accomplished using a fused silica capillary column (Rxi-5Sil MS; 30 m × 0.25 mm × 0.25 μm; Restek Corporation, U.S., Bellefonte, PA, USA). The carrier gas was helium C-60 (Gasin, Portugal), at a constant flow of 1 mL/min. Injections were performed in split mode, with a ratio of 1/20. The injector port was heated to 250 °C. The initial column temperature was 80 °C, followed by a temperature increase of 15 °C/min to 150 °C and 10 °C/min to 300 °C. The MS detector was operated in EI mode (70 eV). The temperature of the transfer line, manifold and EI were 280, 40, and 270 °C, respectively. Data acquisition was performed in full scan mode with a mass range between 50 and 800 m/z at a scan rate of 8 scans/s. The emission current was 40 µA. Ionization was maintained off during the first 1.5 min to avoid solvent overloading. Total separation run time was 20 min.
The analysis was initially performed in full scan mode. […] For that, specific metabolites of methylone and pentedrone, already identified in previous studies, were selected to postulate their mass fragmentation according to their chemical structures (Figure 11) for posterior analysis using the specific ions (m/z in SIM mode) to identify and confirm the metabolite peaks. In SIM mode the selected m/z ions were: IS—m/z 77, 105, 110, and 154; methylone—m/z 121, 149, 154, and 303; nor-methylone—m/z 121, 140, 149, 168, 289, and 260; dihydromethylone—m/z 121, 154, 247, 280, and 401; DHMC—m/z 154, 182, 209, 237, and 391; N-hydroxymethylone—m/z 121, 149, 170, 198, and 319; nor-pentedrone—m/z 77, 105, 126, 168, and 273; dihydropentedrone—m/z 140, 182, 203, 272, and 385; and pentedrone—m/z 77, 105, 140, and 182.

3D-HLCs = assay: Metabolite formation in 3D-HLCs by GC-MS; assay type: in vitro ADME, human; details: 1 mM, 6 h
Description: as §1, §2, §3
The analysis was initially performed in full scan mode. […]

SH-SY5Y cells = test system: SH-SY5Y cells; design: method as in PMID 33609514; details: cited from earlier work
Caco-2 cell monolayer = test system: Caco-2 cell monolayer; design: method as in PMID 32234388; details: cited from earlier work
[1] = test system: 3D-HLCs (human stem-cell-derived hepatocyte-like cells); assay: Cell viability (CellTiter-Glo 3D) in 3D spheroid HLCs; assay type: cell-based; details: 24 h; for concentrations at which cytotoxicity was observed: racemate, 3D-HLCs, compared to control cells
Description: (§4) The hnMSCs isolated from human umbilical cord stroma were fully characterized as described elsewhere and expanded in Eagle’s minimum essential medium—alpha modification (α-MEM) supplemented with 10% (v/v) of fetal bovine serum (FBS; Gibco, Paisley, UK). For generating HLCs, a three-step differentiation protocol was applied to hnMSCs, as detailed previously. Briefly, hnMSCs were seeded at a density of 1.5 × 10^5 cells/cm^2 in a rat-tail collagen (0.2 mg/mL) coated surface plates. At day 17 (D17) of differentiation, cells were trypsinized and reinoculated in Iscove’s modified Dulbecco’s medium (IMDM) with 8 ng/mL oncostatin M (OSM; Peprotech, Rocky Hill, NJ, USA), 1 µM dexamethasone, 1% dimethyl sulfoxide (DMSO) and 1% insulin-transferrin-selenium solution (Gibco, Grand Island, NY, USA), 20 µM of 5-azacytidine, and 5% (v/v) FBS into (i) ultra-low attachment (ULA; VWR International, Radnor, PA, USA) plates (5 × 10^5 cells/mL) to obtain a 3D spheroid culture or (ii) 2D culture plates pre-coated with collagen (2 × 10^4 cells/cm^2). Medium was changed 24 h after inoculation to remove 5-azacytidine and FBS. Cells were maintained until D34 in this medium, which was replaced every 3 days.
(§5) The cytotoxicity of the racemic mixtures (0.25, 0.5, 1.0, 2.0, 3.0, 4.0, 6.0, 8.0, 10.0, and 20.0 mM) and enantiomers (0.5 and 1.0 mM) of pentedrone and methylone were evaluated in both 2D monolayer and 3D spheroid cultures of HLCs, maintained as described above with slight changes. Briefly, at D17 of differentiation, cells were seeded in 96-well plates in 200 μL of culture medium at a density of 6.4 × 10^3 cells/well and 1.6 × 10^4 cells/well in 2D and 3D cultures, respectively. At D34, HLCs cultured in 2D and 3D were exposed to the abovementioned racemic mixtures and enantiomers diluted in IMDM. Cell viability was measured upon 24 h of incubation with the compounds using the CellTiter-Glo® 3D Cell Viability Assay (Promega, Madison, WI, USA), according to manufacturer instructions. Five percent DMSO was used as negative control and IMDM as positive control. IC50 was calculated for the racemic mixtures using a nonlinear regression fit for the Log10 transformation of the concentration values by using GraphPad Prism version 7.0 (GraphPad Software, La Jolla, CA, USA). Three independent experiments were performed.

[2] = test system: primary rat hepatocytes (PRH); details: read-out: EC50 (cytotoxic effects), racemic; cited from earlier work
[3] = cited from earlier work
[4] = test system: human liver microsomes (HLM); assay: Metabolism in ultra-pool human liver microsomes by GC-MS; assay type: in vitro ADME; details: HLM 1 mg protein/mL, 50 µM enantiomer, 0-60 min
Description: The metabolism of methylone and pentedrone was initially evaluated by incubation with ultra-pool human liver microsomes (HLM) at a final assay concentration of 1 mg protein/mL. All experiments were performed in duplicate. The incubation mixture with the HLM consisted of 1.3 mM NADP^+, 3.3 mM glucose-6-phosphate, 3.3 mM MgCl2, 0.4 IU/mL glucose-6-phosphate dehydrogenase, and 0.05 mM sodium citrate in 0.1 M phosphate buffer at pH 7.4. The incubation mixture with each drug was pre-incubated 10 min at 37 °C before the experiment was started with the addition of the HLM. All microsomes assays were incubated with 50 µM of each enantiomer in a final volume of 1 mL at 37 °C. At the time points 0, 5, 10, 20, 30, 40, 50, and 60 min, 100 µL aliquots of the incubations were quenched with 100 µL of ice-cold acetonitrile and methcathinone (internal standard) 100 µg/mL. The quenched solutions were centrifuged for 10 min at 4 °C and the supernatants were extracted with ethyl acetate after previous pH correction (pH = 11 for pentedrone and pH = 13 for methylone).
To study pentedrone and methylone metabolic profiles, we set up a methodology for the identification of pentedrone and methylone phase I metabolites based on a GC–MS methodology developed by Araujo et al. and Uralets et al. with some adaptations. […]

[5] = test system: human liver microsomes (HLM); details: cited from earlier work
[6] = Cell viability (CellTiter-Glo 3D) in 3D spheroid HLCs; assay type: cell-based, human; details: human; racemate, 3D-HLCs, 24 h exposure, 0-20.0 mM; read-out: EC50 (cytotoxicity)
Description: as §4, §5

[7] = test system: 2D-HLCs (human stem-cell-derived hepatocyte-like cells); assay: Cell viability (CellTiter-Glo 3D) in 2D monolayer HLCs; assay type: cell-based; details: racemate, 24 h, 0-20.0 mM
Description: as §4, §5

[8] = as above; assay type: cell-based, human; details: human; racemate, 2D-HLCs, 24 h exposure, 0-20.0 mM; read-out: EC50 (cytotoxicity)
Description: as §4, §5

Row | Compound | preferential metabolic route of the enantiomer (2D-HLCs) | preferential metabolic route of the enantiomer (3D-HLCs) | enantioselectivity in cytotoxicity (SH-SY5Y cells) | enantioselectivity in intestinal absorption (permeability) (Caco-2 cell monolayer) | EC50 [2] [mM] | metabolite with the highest formation (2D-HLCs) | liver-to-blood ratio [3] | phase I metabolites identified [4] | metabolite with the highest formation (3D-HLCs) | concentrations at which cytotoxicity was observed [1] | EC50 at 24 h [6] [mM] | cytotoxicity compared to control cells [7] | EC50 at 24 h [8] [mM] | also measured
1 | CN[C@H](C)C(=O)c1ccc2c(c1)OCO2 [R-(+)-methylone] | preferentially metabolized by O-demethylation and N-hydroxylation | preferentially metabolized by all metabolic routes, except for O-demethylation | most cytotoxic |  |  |  |  |  |  |  |  |  |  | 
2 | CCC[C@@H](NC)C(=O)c1ccccc1 [R-(−)-pentedrone] | preferentially metabolized by all metabolic routes | preferentially metabolized by β-keto reduction |  | most permeable |  |  |  |  |  |  |  |  |  | enantioselectivity in cytotoxicity ([1]; enantiomers at 1 mM, 3D cultures): most cytotoxic enantiomer
3 | CCC[C@H](NC)C(=O)c1ccccc1 [S-(+)-pentedrone] |  |  | most cytotoxic |  |  |  |  |  |  |  |  |  |  | 
4 | CNC(C)C(=O)c1ccc2c(c1)OCO2 (centres unmarked) [methylone] |  |  |  |  | 1.6 | N-Hydroxymethylone | ≤ 3 | N-hydroxymethylone, DHMC, dihydromethylone, and nor-methylone | N-Hydroxymethylone | > 3000 µM | 5.2 | significant cytotoxicity for all concentrations tested | 4.8 | enzymes metabolizing the drug [5]: initially metabolized by CYP2D6, with minor contributions of CYP1A2, CYP2B6, and CYP2C19
5 | CCCC(NC)C(=O)c1ccccc1 (centres unmarked) [pentedrone] |  |  |  |  | 0.7 | dihydropentedrone | up to 11 | dihydropentedrone and nor-pentedrone | dihydropentedrone | higher than 1.0 mM | 3.6 | significant cytotoxicity for all concentrations tested | 2.8 | 
6 | S-(−)-methylone | preferentially metabolized via N-demethylation |  |  | most permeable |  |  |  |  |  |  |  |  |  | 
